{"source": "PubChem BioAssay AID1259409", "about": "(Chemical Carcinogenesis Research Information System (CCRIS), 2018)", "origin": "cited, not measured here", "test_system": "rodent chemically induced tumor inhibition, incidence and multiplicity", "test": "CCRIS tumor inhibitor studies", "conditions": "Dose [Inhibitor]: 0, Route [Inhibitor]: ORAL, Species: RAT"}
{"smiles": "CC1=C(CC(=O)O)c2cc(F)ccc2/C1=C\\c1ccc(S(C)(=O)=O)cc1", "values": [{"measurement": "tumour outcome (control, treated, inhibition, significance)", "setting": "Carcinogen: 1-METHYL-1-NITROSOUREA, 684-93-5, 0.03% IN A PURIFIED HIGH-FAT (24.6%) DIET FOR 37 WK BEGINNING 1 WK POST CARCINOGEN DOSE (STUDY DURATION: 38 WK), Strain/Sex: SPRAGUE-DAWLEY/FEMALE, Target Tissue: Type of Lesion: MAMMARY GLAND: CARCINOMA, Dose [Carcinogen]: 12.5 MG/KG BW ONCE, Promoter: NONE USED", "result": "30%, 12%, 60%, p<0.05"}, {"measurement": "tumour outcome (control, treated, inhibition, significance)", "setting": "Carcinogen: 1-METHYL-1-NITROSOUREA, 684-93-5, 0.03% IN DIET FOR DURATION OF STUDY BEGINNING 7 D POST CARCINOGEN DOSE (STUDY DURATION: 24 WK), Strain/Sex: SPRAGUE-DAWLEY/FEMALE, Target Tissue: Type of Lesion: MAMMARY GLAND: ADENOCARCINOMA, Dose [Carcinogen]: 50 MG/KG ONCE, Promoter: NONE USED", "result": "93%, 93%, 0%, not significant"}, {"measurement": "tumour outcome (control, treated, inhibition, significance)", "setting": "Carcinogen: 1-METHYL-1-NITROSOUREA, 684-93-5, 0.06% IN A PURIFIED HIGH-FAT (24.6%) DIET FOR 37 WK BEGINNING 1 WK POST CARCINOGEN DOSE (STUDY DURATION: 38 WK), Strain/Sex: SPRAGUE-DAWLEY/FEMALE, Target Tissue: Type of Lesion: MAMMARY GLAND: CARCINOMA, Dose [Carcinogen]: 12.5 MG/KG BW ONCE, Promoter: NONE USED", "result": "30%, 16%, 47%, p<0.05"}, {"measurement": "tumour outcome (control, treated, inhibition, significance)", "setting": "Carcinogen: 1-METHYL-1-NITROSOUREA, 684-93-5, 0.06% IN DIET FOR DURATION OF STUDY BEGINNING 7 D POST CARCINOGEN DOSE (STUDY DURATION: 24 WK), Strain/Sex: SPRAGUE-DAWLEY/FEMALE, Target Tissue: Type of Lesion: MAMMARY GLAND: ADENOCARCINOMA, Dose [Carcinogen]: 50 MG/KG ONCE, Promoter: NONE USED", "result": "93%, 72%, 23%, p<0.05"}, {"measurement": "tumour outcome (control, treated, inhibition, significance)", "setting": "Carcinogen: AZOXYMETHANE, 25843-45-2, 500 PPM IN DIET FOR 29 WK BEGINNING 1 WK POST CARCINOGEN TREATMENT (STUDY DURATION: 32 WK), Strain/Sex: F344/MALE, Target Tissue: Type of Lesion: COLON: ADENOMA, Dose [Carcinogen]: 15 MG/KG BW 1/WK FOR 2 WK, Promoter: NONE USED", "result": "77%, 60%, 22%, not significant"}, {"measurement": "tumour outcome (control, treated, inhibition, significance)", "setting": "Carcinogen: AZOXYMETHANE, 25843-45-2, 500 PPM IN DIET FOR 29 WK BEGINNING 1 WK POST CARCINOGEN TREATMENT (STUDY DURATION: 32 WK), Strain/Sex: F344/MALE, Target Tissue: Type of Lesion: COLON: CARCINOMA, Dose [Carcinogen]: 15 MG/KG BW 1/WK FOR 2 WK, Promoter: NONE USED", "result": "53%, 63%, -19%, not significant"}, {"measurement": "tumour outcome (control, treated, inhibition, significance)", "setting": "Carcinogen: AZOXYMETHANE, 25843-45-2, 1000 PPM IN DIET FOR 29 WK BEGINNING 1 WK POST CARCINOGEN TREATMENT (STUDY DURATION: 32 WK), Strain/Sex: F344/MALE, Target Tissue: Type of Lesion: COLON: ADENOMA, Dose [Carcinogen]: 15 MG/KG BW 1/WK FOR 2 WK, Promoter: NONE USED", "result": "77%, 40%, 48%, p<0.05"}, {"measurement": "tumour outcome (control, treated, inhibition, significance)", "setting": "Carcinogen: AZOXYMETHANE, 25843-45-2, 1000 PPM IN DIET FOR 29 WK BEGINNING 1 WK POST CARCINOGEN TREATMENT (STUDY DURATION: 32 WK), Strain/Sex: F344/MALE, Target Tissue: Type of Lesion: COLON: CARCINOMA, Dose [Carcinogen]: 15 MG/KG BW 1/WK FOR 2 WK, Promoter: NONE USED", "result": "53%, 37%, 30%, not significant"}, {"measurement": "tumour outcome (control, treated, inhibition, significance)", "setting": "Carcinogen: AZOXYMETHANE, 25843-45-2, 2000 PPM IN DIET FOR 29 WK BEGINNING 1 WK POST CARCINOGEN TREATMENT (STUDY DURATION: 32 WK), Strain/Sex: F344/MALE, Target Tissue: Type of Lesion: COLON: ADENOMA, Dose [Carcinogen]: 15 MG/KG BW 1/WK FOR 2 WK, Promoter: NONE USED", "result": "77%, 20%, 74%, p<0.05"}, {"measurement": "tumour outcome (control, treated, inhibition, significance)", "setting": "Carcinogen: AZOXYMETHANE, 25843-45-2, 2000 PPM IN DIET FOR 29 WK BEGINNING 1 WK POST CARCINOGEN TREATMENT (STUDY DURATION: 32 WK), Strain/Sex: F344/MALE, Target Tissue: Type of Lesion: COLON: CARCINOMA, Dose [Carcinogen]: 15 MG/KG BW 1/WK FOR 2 WK, Promoter: NONE USED", "result": "53%, 10%, 81%, p<0.05"}, {"measurement": "tumour outcome (control, treated, inhibition, significance)", "setting": "Carcinogen: N-BUTYL-N-(N-HYDROXYBUTYL)NITROSAMINE [3817-11-6], 600 MG/KG IN DIET FOR 6 MONTHS BEGINNING 1 WK PRIOR TO FIRST CARCINOGEN DOSE (STUDY DURATION: 6 MONTHS), Strain/Sex: F344/FEMALE, Target Tissue: Type of Lesion: URINARY BLADDER: CARCINOMA, Dose [Carcinogen]: 150 MG IN 20% ETHANOL 2X/WK FOR 8 WK (STUDY DURATION: 6 MONTHS), Promoter: NONE", "result": "27%, 30%, -11%, not significant"}, {"measurement": "tumour outcome (control, treated, inhibition, significance)", "setting": "Carcinogen: N-BUTYL-N-(N-HYDROXYBUTYL)NITROSAMINE [3817-11-6], 600 MG/KG IN DIET FOR 6 MONTHS BEGINNING 1 WK PRIOR TO FIRST CARCINOGEN DOSE (STUDY DURATION: 6 MONTHS), Strain/Sex: F344/FEMALE, Target Tissue: Type of Lesion: URINARY BLADDER: PAPILLOMA, Dose [Carcinogen]: 150 MG IN 20% ETHANOL 2X/WK FOR 8 WK (STUDY DURATION: 6 MONTHS), Promoter: NONE", "result": "60%, 60%, 0%, not significant"}, {"measurement": "tumour outcome (control, treated, inhibition, significance)", "setting": "Carcinogen: N-BUTYL-N-(N-HYDROXYBUTYL)NITROSAMINE [3817-11-6], 800 MG/KG IN DIET FOR 6 MONTHS BEGINNING 1 WK PRIOR TO FIRST CARCINOGEN DOSE (STUDY DURATION: 6 MONTHS), Strain/Sex: F344/FEMALE, Target Tissue: Type of Lesion: URINARY BLADDER: CARCINOMA, Dose [Carcinogen]: 150 MG IN 20% ETHANOL 2X/WK FOR 8 WK (STUDY DURATION: 6 MONTHS), Promoter: NONE", "result": "27%, 23%, 15%, not significant"}, {"measurement": "tumour outcome (control, treated, inhibition, significance)", "setting": "Carcinogen: N-BUTYL-N-(N-HYDROXYBUTYL)NITROSAMINE [3817-11-6], 800 MG/KG IN DIET FOR 6 MONTHS BEGINNING 1 WK PRIOR TO FIRST CARCINOGEN DOSE (STUDY DURATION: 6 MONTHS), Strain/Sex: F344/FEMALE, Target Tissue: Type of Lesion: URINARY BLADDER: PAPILLOMA, Dose [Carcinogen]: 150 MG IN 20% ETHANOL 2X/WK FOR 8 WK (STUDY DURATION: 6 MONTHS), Promoter: NONE", "result": "60%, 43%, 28%, not significant"}, {"measurement": "tumour outcome (control, treated, inhibition, significance)", "setting": "Carcinogen: N-BUTYL-N-(N-HYDROXYBUTYL)NITROSAMINE [3817-11-6], 1000 MG/KG IN DIET FOR 6 MONTHS BEGINNING 1 WK PRIOR TO FIRST CARCINOGEN DOSE (STUDY DURATION: 6 MONTHS), Strain/Sex: F344/FEMALE, Target Tissue: Type of Lesion: URINARY BLADDER: CARCINOMA, Dose [Carcinogen]: 150 MG IN 20% ETHANOL 2X/WK FOR 8 WK (STUDY DURATION: 6 MONTHS), Promoter: NONE", "result": "27%, 14%, 48%, not significant"}, {"measurement": "tumour outcome (control, treated, inhibition, significance)", "setting": "Carcinogen: N-BUTYL-N-(N-HYDROXYBUTYL)NITROSAMINE [3817-11-6], 1000 MG/KG IN DIET FOR 6 MONTHS BEGINNING 1 WK PRIOR TO FIRST CARCINOGEN DOSE (STUDY DURATION: 6 MONTHS), Strain/Sex: F344/FEMALE, Target Tissue: Type of Lesion: URINARY BLADDER: PAPILLOMA, Dose [Carcinogen]: 150 MG IN 20% ETHANOL 2X/WK FOR 8 WK (STUDY DURATION: 6 MONTHS), Promoter: NONE", "result": "60%, 38%, 37%, not significant"}, {"measurement": "tumour outcome (control, treated, inhibition, significance)", "setting": "Carcinogen: N-BUTYL-N-(N-HYDROXYBUTYL)NITROSAMINE [3817-11-6], 1200 MG/KG IN DIET FOR 6 MONTHS BEGINNING 1 WK PRIOR TO FIRST CARCINOGEN DOSE (STUDY DURATION: 6 MONTHS), Strain/Sex: F344/FEMALE, Target Tissue: Type of Lesion: URINARY BLADDER: CARCINOMA, Dose [Carcinogen]: 150 MG IN 20% ETHANOL 2X/WK FOR 8 WK (STUDY DURATION: 6 MONTHS), Promoter: NONE", "result": "27%, 7%, 74%, not significant"}, {"measurement": "tumour outcome (control, treated, inhibition, significance)", "setting": "Carcinogen: N-BUTYL-N-(N-HYDROXYBUTYL)NITROSAMINE [3817-11-6], 1200 MG/KG IN DIET FOR 6 MONTHS BEGINNING 1 WK PRIOR TO FIRST CARCINOGEN DOSE (STUDY DURATION: 6 MONTHS), Strain/Sex: F344/FEMALE, Target Tissue: Type of Lesion: URINARY BLADDER: PAPILLOMA, Dose [Carcinogen]: 150 MG IN 20% ETHANOL 2X/WK FOR 8 WK (STUDY DURATION: 6 MONTHS), Promoter: NONE", "result": "60%, 27%, 55%, not significant"}]}
